# Reference: ChEMBL document CHEMBL5724914, “Linking interpersonal differences in gut microbiota composition and drug biotransformation activity” (2024)
# Columns and labels:
# [1] = (§1) The drug is tested on WLS-310 corresponding to human gut metagenome with ENA study accession number: PRJEB37062 and ENA sample accession number: ERS12561785 for biotransformation under anaerobic condition. The drug concentrations were measured over 9 timepoints collected between 0 and 24 hours of incubation by liquid-chromatography-coupled mass spectrometry (LC–MS); details: 2 µM
# [2] = human gut metagenome, 24 h, 2 µM
# [3] = as §1, with “WLS-220” for “WLS-310”, “ERS12561769” for “ERS12561785”; details: 2 µM
# [4] = human gut metagenome, 24 h, 2 µM; remark: listed apart in the source
# [5] = as §1, with “WLS-039” for “WLS-310”, “ERS12561746” for “ERS12561785”; details: 2 µM
# [6] = as §1, with “WLS-098” for “WLS-310”, “ERS12561754” for “ERS12561785”; details: 2 µM
# [7] = human gut metagenome, 24 h, 2 µM; remark: listed apart in the source
# [8] = as §1, with “Z-002” for “WLS-310”, “rabbit” for “human”, “ERS12561802” for “ERS12561785”; details: 2 µM
# [9] = human gut metagenome, 24 h, 2 µM; remark: listed apart in the source
# [10] = human gut metagenome, 24 h, 2 µM; remark: listed apart in the source
# [11] = human gut metagenome, 24 h, 2 µM; remark: listed apart in the source
# [12] = as §1, with “WLS-010” for “WLS-310”, “ERS12561743” for “ERS12561785”; details: 2 µM
# [13] = as §1, with “WLS-006” for “WLS-310”, “ERS12561741” for “ERS12561785”; details: 2 µM
# [14] = human gut metagenome, 24 h, 2 µM; remark: listed apart in the source
# [15] = human gut metagenome, 24 h, 2 µM; remark: listed apart in the source
# [16] = as §1, with “WLS-170” for “WLS-310”, “ERS12561762” for “ERS12561785”; details: 2 µM
# [17] = human gut metagenome, 24 h, 2 µM; remark: listed apart in the source
# [18] = as §1, with “Z-009” for “WLS-310”, “pig” for “human”, “ERS12561809” for “ERS12561785”; details: 2 µM
# [19] = as §1, with “WLS-240” for “WLS-310”, “ERS12561773” for “ERS12561785”; details: 2 µM
# [20] = human gut metagenome, 24 h, 2 µM; remark: listed apart in the source
# Also: call rule not given here.
SMILES,Bacterial Biotransformation [1],Bacterial Biotransformation [2],Bacterial Biotransformation [3],Bacterial Biotransformation [4],Bacterial Biotransformation [5],Bacterial Biotransformation [6],Bacterial Biotransformation [7],Bacterial Biotransformation [8],Bacterial Biotransformation [9],Bacterial Biotransformation [10],Bacterial Biotransformation [11],Bacterial Biotransformation [12],Bacterial Biotransformation [13],Bacterial Biotransformation [14],Bacterial Biotransformation [15],Bacterial Biotransformation [16],Bacterial Biotransformation [17],Bacterial Biotransformation [18],Bacterial Biotransformation [19],Bacterial Biotransformation [20]
CN1CCC(OC(c2ccccc2)c2ccccc2)CC1,Compound metabolized,Compound NOT metabolized,Compound metabolized,Compound metabolized,Compound metabolized,Compound metabolized,Compound NOT metabolized,Compound NOT metabolized,Compound NOT metabolized,Compound metabolized,Compound metabolized,Compound NOT metabolized,Compound NOT metabolized,Compound metabolized,Compound metabolized,Compound metabolized,Compound metabolized,Compound NOT metabolized,Compound metabolized,Compound NOT metabolized
C=CC[C@@H]1/C=C(\C)C[C@H](C)C[C@H](OC)[C@H]2O[C@@](O)(C(=O)C(=O)N3CCCC[C@H]3C(=O)O[C@H](/C(C)=C/[C@@H]3CC[C@@H](O)[C@H](OC)C3)[C@H](C)[C@@H](O)CC1=O)[C@H](C)C[C@@H]2OC.O [TACROLIMUS],Compound metabolized,Compound metabolized,Compound metabolized,Compound metabolized,Compound metabolized,Compound NOT metabolized,Compound metabolized,Compound metabolized,Compound metabolized,Compound metabolized,Compound metabolized,Compound metabolized,Compound metabolized,Compound metabolized,Compound metabolized,Compound metabolized,Compound metabolized,Compound NOT metabolized,Compound metabolized,Compound metabolized
CN(CCOc1ccc(CC2SC(=O)NC2=O)cc1)c1ccccn1.O=C(O)/C=C\C(=O)O (stereo not given) [ROSIGLITAZONE MALEATE],Compound metabolized,Compound NOT metabolized,Compound metabolized,Compound metabolized,Compound NOT metabolized,Compound metabolized,Compound NOT metabolized,Compound NOT metabolized,Compound NOT metabolized,Compound metabolized,Compound NOT metabolized,Compound NOT metabolized,Compound metabolized,Compound metabolized,Compound metabolized,Compound metabolized,Compound metabolized,Compound NOT metabolized,Compound metabolized,Compound NOT metabolized
N=C(N)NC(=O)Cc1c(Cl)cccc1Cl [GUANFACINE],Compound NOT metabolized,Compound NOT metabolized,Compound NOT metabolized,Compound NOT metabolized,Compound NOT metabolized,Compound NOT metabolized,Compound NOT metabolized,Compound NOT metabolized,Compound NOT metabolized,Compound NOT metabolized,Compound NOT metabolized,Compound NOT metabolized,Compound NOT metabolized,Compound NOT metabolized,Compound NOT metabolized,Compound NOT metabolized,Compound NOT metabolized,Compound NOT metabolized,Compound NOT metabolized,Compound NOT metabolized
CCN1CCCC1CNC(=O)c1cc(S(=O)(=O)CC)c(N)cc1OC (stereo not given) [AMISULPRIDE],Compound metabolized,Compound NOT metabolized,Compound NOT metabolized,Compound metabolized,Compound NOT metabolized,Compound metabolized,Compound NOT metabolized,Compound metabolized,Compound NOT metabolized,Compound NOT metabolized,Compound NOT metabolized,Compound NOT metabolized,Compound NOT metabolized,Compound metabolized,Compound NOT metabolized,Compound metabolized,Compound NOT metabolized,Compound NOT metabolized,Compound metabolized,Compound NOT metabolized
COc1ccc(CN2CCNCC2)c(OC)c1OC.Cl.Cl [TRIMETAZIDINE DIHYDROCHLORIDE],Compound NOT metabolized,Compound NOT metabolized,Compound NOT metabolized,Compound NOT metabolized,Compound NOT metabolized,Compound NOT metabolized,Compound NOT metabolized,Compound NOT metabolized,Compound NOT metabolized,Compound NOT metabolized,Compound NOT metabolized,Compound NOT metabolized,Compound NOT metabolized,Compound NOT metabolized,Compound NOT metabolized,Compound NOT metabolized,Compound NOT metabolized,Compound NOT metabolized,Compound NOT metabolized,Compound NOT metabolized
Nc1nc(N)nc(-c2cc(Cl)ccc2Cl)n1.O=C(O)/C=C\C(=O)O [IRSOGLADINE MALEATE],Compound NOT metabolized,Compound NOT metabolized,Compound NOT metabolized,Compound NOT metabolized,Compound NOT metabolized,Compound metabolized,Compound NOT metabolized,Compound NOT metabolized,Compound NOT metabolized,Compound NOT metabolized,Compound NOT metabolized,Compound NOT metabolized,Compound NOT metabolized,Compound NOT metabolized,Compound NOT metabolized,Compound NOT metabolized,Compound NOT metabolized,Compound NOT metabolized,Compound NOT metabolized,Compound NOT metabolized
